According to article PMC5820429 (Influenza and Other Respiratory Viruses, 2018):

Design: species or system patients
Details: in vivo

With CCOC(=O)C1=C[C@@H](OC(CC)CC)[C@H](NC(C)=O)[C@@H](N)C1 [oseltamivir] as the compound, how does the “Time to alleviation of symptoms, shorter in treated vs non‐treated patients” value read?
The value was 1 days.
